Tests used:
P-gp = target: T1, P-gp (Homo sapiens, UniProt P08183); assay: Study on transporter substrates in Caco-2 cell model; type: in vitro ADME; details: Caco-2 cell model
T1 construct: endogenous in cells; host or cells: Caco-2
Experimental: The resistance of each well was recorded. […] 2. […] The plate was vortexed for 10 min. The samples were centrifuged. […] HBSS was added to the basolateral compartment. […] 3. Data Analysis
Data were calculated using Microsoft Excel.

BCRP = target: T2, BCRP (Homo sapiens, UniProt Q9UNQ0); assay: as above
T2 sequence (Q9UNQ0 1-655): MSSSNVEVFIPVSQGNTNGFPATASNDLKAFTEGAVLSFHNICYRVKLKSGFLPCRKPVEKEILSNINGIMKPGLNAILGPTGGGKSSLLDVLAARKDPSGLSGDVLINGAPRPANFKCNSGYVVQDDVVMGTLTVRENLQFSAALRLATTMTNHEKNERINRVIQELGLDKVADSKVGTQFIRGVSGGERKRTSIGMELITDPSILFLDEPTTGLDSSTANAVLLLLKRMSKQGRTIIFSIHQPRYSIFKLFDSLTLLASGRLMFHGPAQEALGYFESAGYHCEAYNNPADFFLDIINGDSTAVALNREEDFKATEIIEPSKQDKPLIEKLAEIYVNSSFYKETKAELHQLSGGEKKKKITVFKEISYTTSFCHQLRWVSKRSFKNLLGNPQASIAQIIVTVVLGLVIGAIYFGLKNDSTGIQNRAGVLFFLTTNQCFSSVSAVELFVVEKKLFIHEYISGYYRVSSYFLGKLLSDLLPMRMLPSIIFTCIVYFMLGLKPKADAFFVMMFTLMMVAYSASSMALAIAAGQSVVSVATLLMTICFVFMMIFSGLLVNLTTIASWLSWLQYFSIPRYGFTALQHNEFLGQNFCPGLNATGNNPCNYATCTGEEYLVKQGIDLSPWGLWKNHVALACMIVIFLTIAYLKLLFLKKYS

MDA-MB-231 cells = assay: Inhibition of in vitro proliferation of tumor cells by compounds (CTG, 6 days); type: cell-based; details: Homo sapiens, MDA-MB-231, 144 h, read-out: MDA-MB-231 IC50 (nM)
Experimental: To test the inhibitory activity of the pharmaceutical compounds on the in vitro proliferation of NCI-N87, JIMT-1 and MBA-MB-231 tumor cells. The cells were treated with compounds at different concentrations in vitro, and after 6 days of culture, the proliferation of cells was detected using CTG (CellTiter-Glo® Luminescent Cell Viability Assay, Promega, Cat. No. G7558) reagents, and the in vitro activity of the compounds was evaluated according to the IC50 value. • 1. Culturing of cells: NCI-N87/JIMT-1/MBA-MB-231 cells were cultured in RPMI-1640 medium containing 10% FBS. • 2. Preparation of cells: NCI-N87/JIMT-1/MBA-MB-231 cells in logarithmic phase were taken, washed with PBS once, and digested with 2-3 mL of trypsin for 2-3 min. After the cells were digested completely, 10-15 mL of cell culture was added to elute the digested cells. The eluate was centrifuged at 1000 rpm for 5 min, and the supernatant was discarded. The resulting cells were resuspended in 10-20 mL of cell culture to obtain a single cell suspension. • 3. Cell plating: the NCI-N87/JIMT-1/MBA-MB-231 single cell suspension was mixed well and adjusted to a viable cell density of 6×10^4 cells/mL with cell culture. The cell suspension with the adjusted density was mixed well and added to a 96-well cell culture plate at 50 μL/well. The culture plate was incubated in an incubator for 18 h (37° C., 5% CO2). • 4. Preparation of compounds: the compounds were dissolved in DMSO to obtain stock solutions at an initial concentration of 10 mM. There were 8 concentrations in total for the small molecule compounds: 300 nM, 100 nM, 30 nM, 10 nM, 3 nM, 1 nM, 0.3 nM, and 0.1 nM. • 5. Sample adding: the prepared samples to be detected at different concentrations were added to the culture plate, and two duplicate wells were set for each sample. The culture plate was incubated in an incubator for 6 days (37° C., 5% CO2). • 6. Color developing: the 96-well cell culture plate was taken out, added with the CTG reagent at 50 μL/well, and incubated at room temperature for 10 min. • 7. Plate reading: the 96-well cell culture plate was taken out, placed in a microplate reader, and measured for the chemiluminescence using the microplate reader. Data analysis: data were processed and analyzed using Microsoft Excel and Graphpad Prism 5.

JIMT-1 cells = assay: as above; type: cell-based; details: Homo sapiens, JIMT-1, 144 h, read-out: JIMT-1 IC50 (nM)
Experimental: (§1) To test the inhibitory activity of the pharmaceutical compounds on the in vitro proliferation of NCI-N87, JIMT-1 and MBA-MB-231 tumor cells. The cells were treated with the compounds at different concentrations in vitro, and after 6 days of culture, the proliferation of cells was detected using the CTG (CellTiter-Glo® Luminescent Cell Viability Assay, Promega, Cat. No. G7558) reagent, and the in vitro activity of the compounds was evaluated according to the IC50 value.
(§2) In the following, the test for the inhibition of the in vitro proliferation of NCI-N87 cells was taken as an example to illustrate the method of the present application for testing the inhibitory activity of the compounds of the present application on the in vitro proliferation of tumor cells. The method was also applicable to, but not limited to, the test for the inhibitory activity on the in vitro proliferation of other tumor cells. • 1. Culturing of cells: NCI-N87 cells were cultured in RPMI-1640 medium containing 10% FBS. • 2. Preparation of cells: NCI-N87 cells in logarithmic phase were taken, washed with PBS once, and digested with 2-3 mL of trypsin for 2-3 min. After the cells were digested completely, 10-15 mL of cell culture was added to elute the digested cells. The eluate was centrifuged at 1000 rpm for 5 min, and the supernatant was discarded. The resulting cells were resuspended in 10-20 mL of cell culture to obtain a single cell suspension. • 3. Cell plating: the NCI-N87 single cell suspension was mixed well and adjusted to a viable cell density of 6×10^4 cells/mL with cell culture. The cell suspension with the adjusted density was mixed well and added to a 96-well cell culture plate at 50 μL/well. The culture plate was incubated in an incubator for 18 h (37° C., 5% CO2). • 4. Preparation of compounds: the compounds were dissolved in DMSO to obtain stock solutions at an initial concentration of 10 mM. There were 8 concentrations in total for the small molecule compounds: 300 nM, 100 nM, 30 nM, 10 nM, 3 nM, 1 nM, 0.3 nM, and 0.1 nM. • 5. Sample adding: the prepared samples to be detected at different concentrations were added to the culture plate, and two duplicate wells were set for each sample. The culture plate was incubated in an incubator for 6 days (37° C., 5% CO2). • 6. Color developing: the 96-well cell culture plate was taken out, added with the CTG reagent at 50 μL/well, and incubated at room temperature for 10 min. • 7. Plate reading: the 96-well cell culture plate was taken out, placed in a microplate reader, and measured for the chemiluminescence using the microplate reader. Data Analysis
(§3) Data were processed and analyzed using Microsoft Excel and Graphpad Prism 5.
(§4) To test the inhibitory activity of the pharmaceutical compounds on the in vitro proliferation of NCI-N87, JIMT-1 and MBA-MB-231 tumor cells. The cells were treated with compounds at different concentrations in vitro, and after 6 days of culture, the proliferation of cells was detected using CTG (CellTiter-Glo® Luminescent Cell Viability Assay, Promega, Cat. No. G7558) reagents, and the in vitro activity of the compounds was evaluated according to the IC50 value. • 1. Culturing of cells: NCI-N87/JIMT-1/MBA-MB-231 cells were cultured in RPMI-1640 medium containing 10% FBS. • 2. Preparation of cells: NCI-N87/JIMT-1/MBA-MB-231 cells in logarithmic phase were taken, washed with PBS once, and digested with 2-3 mL of trypsin for 2-3 min. After the cells were digested completely, 10-15 mL of cell culture was added to elute the digested cells. The eluate was centrifuged at 1000 rpm for 5 min, and the supernatant was discarded. The resulting cells were resuspended in 10-20 mL of cell culture to obtain a single cell suspension. • 3. Cell plating: the NCI-N87/JIMT-1/MBA-MB-231 single cell suspension was mixed well and adjusted to a viable cell density of 6×10^4 cells/mL with cell culture. […]

NCI-N87 cells = assay: as above; type: cell-based; details: Homo sapiens, NCI-N87, 144 h, read-out: NCI-N87 IC50 (nM)
Experimental: as §1, §2, §3, §4

T1 sequence (P08183 whole entry): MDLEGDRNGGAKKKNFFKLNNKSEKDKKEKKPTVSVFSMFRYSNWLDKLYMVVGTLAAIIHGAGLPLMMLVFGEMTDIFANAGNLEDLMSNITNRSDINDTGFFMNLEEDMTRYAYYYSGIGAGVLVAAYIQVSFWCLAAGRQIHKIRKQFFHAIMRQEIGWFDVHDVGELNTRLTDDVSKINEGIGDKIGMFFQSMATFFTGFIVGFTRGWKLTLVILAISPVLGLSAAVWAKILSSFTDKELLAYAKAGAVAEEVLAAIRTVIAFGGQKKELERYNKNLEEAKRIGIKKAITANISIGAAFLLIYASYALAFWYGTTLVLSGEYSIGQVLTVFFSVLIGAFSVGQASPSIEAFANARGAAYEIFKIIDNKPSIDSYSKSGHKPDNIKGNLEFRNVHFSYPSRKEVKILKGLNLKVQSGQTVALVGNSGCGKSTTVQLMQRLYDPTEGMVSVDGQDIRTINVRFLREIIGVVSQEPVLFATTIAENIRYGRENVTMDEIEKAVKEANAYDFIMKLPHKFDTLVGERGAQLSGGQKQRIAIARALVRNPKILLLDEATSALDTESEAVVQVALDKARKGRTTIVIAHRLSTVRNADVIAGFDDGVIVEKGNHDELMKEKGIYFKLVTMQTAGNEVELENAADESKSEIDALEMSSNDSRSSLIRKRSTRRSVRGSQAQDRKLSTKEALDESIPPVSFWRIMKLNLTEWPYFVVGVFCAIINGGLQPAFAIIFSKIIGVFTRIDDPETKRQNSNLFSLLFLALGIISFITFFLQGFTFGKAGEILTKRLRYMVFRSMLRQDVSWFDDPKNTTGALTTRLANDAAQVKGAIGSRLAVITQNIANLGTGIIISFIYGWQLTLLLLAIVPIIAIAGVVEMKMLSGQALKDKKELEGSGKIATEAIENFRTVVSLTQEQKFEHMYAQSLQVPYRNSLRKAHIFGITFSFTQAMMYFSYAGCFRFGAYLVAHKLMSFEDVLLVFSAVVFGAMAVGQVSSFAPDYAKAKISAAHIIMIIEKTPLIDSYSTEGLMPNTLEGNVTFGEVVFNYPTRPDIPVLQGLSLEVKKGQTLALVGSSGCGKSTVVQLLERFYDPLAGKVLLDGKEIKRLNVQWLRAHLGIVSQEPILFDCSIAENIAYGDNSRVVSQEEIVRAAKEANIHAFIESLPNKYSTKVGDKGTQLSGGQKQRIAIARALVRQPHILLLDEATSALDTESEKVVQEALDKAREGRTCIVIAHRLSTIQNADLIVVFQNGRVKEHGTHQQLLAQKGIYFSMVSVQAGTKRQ

In the case of `CC[C@@]1(O)C(=O)OCc2c1cc1n(c2=O)Cc2c-1nc1cc(F)c(C)c3c1c2[C@@H](NC(=O)CO)CC3` [Dxd, reference compound], the P-gp substrate (P-gp) is reported as “not a transporter P-gp substrate”, the “Recovery rate (%) AP-BL” value (BCRP; Caco-2, KO143 +) is reported as 76.51% and the “Recovery rate (%) BL-AP” value (BCRP; Caco-2, KO143 +) is reported as 74.87%. The Efflux ratio (BCRP; Caco-2, KO143 −) was 74.03, the “Recovery rate (%) AP-BL” value (BCRP; Caco-2, KO143 −) was 57.76% and the “Recovery rate (%) BL-AP” value (BCRP; Caco-2, KO143 −) was 56.20%. For the same compound, the “Papp (A-B) (10^−6, cm/s)” value (BCRP; Caco-2, KO143 −, 2 h) was 0.07 10^−6, cm/s, the “Papp (B-A) (10^−6, cm/s)” value (BCRP; Caco-2, KO143 −, 2 h) was 4.82 10^−6, cm/s and the BCRP substrate (BCRP; Caco-2 cell model, from rate of change of efflux ratio) was “transporter BCRP substrate and Yes”.
`CC[C@@]1(O)C(=O)OCc2c1cc1n(c2=O)Cc2c-1nc1cc(F)c(C)c3c1c2[C@@H](NC(=O)c1ccc(O)cc1)CC3` [P-II-23, N-((1S,9S)-9-ethyl-5-fluoro-9-hydroxy-4-methyl-10,13-dioxo-2,3,9,10,13,15-hexahydro-1H,12H-benzo[de]pyrano[3′,4′:6,7]indolizino[1,2-b]quinolin-1-yl)-4-hydroxybenzamide-1-carboxamide] showed an IC50 (MDA-MB-231 cells) of 7.7 nM.
`CC[C@@]1(O)C(=O)OCc2c1cc1n(c2=O)Cc2c-1nc1cc(F)c(C)c3c1c2[C@@H](NC(=O)c1ccc(O)cn1)CC3` [P-II-24, N-((1S,9S)-9-ethyl-5-fluoro-9-hydroxy-4-methyl-10,13-dioxo-2,3,9,10,13,15-hexahydro-1H,12H-benzo[de]pyrano[3′,4′:6,7]indolizino[1,2-b]quinolin-1-yl)-5-hydroxypicolinamide] gave an IC50 (JIMT-1 cells) of 20.8 nM and an IC50 (MDA-MB-231 cells) of 8.5 nM.
For `CC[C@@]1(O)C(=O)OCc2c1cc1n(c2=O)Cc2c-1nc1cc(F)c(C)c3c1c2[C@@H](NC(=O)CS)CC3` [P-III-1, N-((1S,9S)-9-ethyl-5-fluoro-9-hydroxy-4-methyl-10,13-dioxo-2,3,9,10,13,15-hexahydro-1H,12H-benzo[de]pyrano[3′,4′:6,7]indolizino[1,2-b]quinolin-1-yl)-2-mercaptoacetamide], the IC50 (MDA-MB-231 cells) was 28.9 nM.
`CC[C@@]1(O)C(=O)OCc2c1cc1n(c2=O)Cc2c-1nc1cc(F)c(C)c3c1c2[C@@H](NC(=O)CCNC)CC3` [P-III-9, N-((1S,9S)-9-ethyl-5-fluoro-9-hydroxy-4-methyl-10,13-dioxo-2,3,9,10,13,15-hexahydro-1H,12H-benzo[de]pyrano[3′,4′:6,7]indolizino[1,2-b]quinolin-1-yl)-3-methylaminopropanamide] showed an IC50 (MDA-MB-231 cells) of 28.9 nM.
Work on `CC[C@@]1(O)C(=O)OCc2c1cc1n(c2=O)Cc2c-1nc1cc(F)c(C)c3c1c2[C@@H](NC(=O)CC(C)(C)O)CC3` [P-III-21, N-((1S,9S)-9-ethyl-5-fluoro-9-hydroxy-4-methyl-10,13-dioxo-2,3,9,10,13,15-hexahydro-1H,12H-benzo[de]pyrano[3′,4′:6,7]indolizino[1,2-b]quinolin-1-yl)-3-hydroxy-3-methylbutanamide] yielded an IC50 (JIMT-1 cells) of 2.87 nM, an IC50 (NCI-N87 cells) of 4.75 nM and an IC50 (MDA-MB-231 cells) of 2.88 nM.
`CC[C@@]1(O)C(=O)OCc2c1cc1n(c2=O)Cc2c-1nc1cc(F)c(C)c3c1c2[C@@H](NC(=O)C[C@H](C)N)CC3` [P-III-28, (S)-3-amino-N-((1S,9S)-9-ethyl-5-fluoro-9-hydroxy-4-methyl-10,13-dioxo-2,3,9,10,13,15-hexahydro-1H,12H-benzo[de]pyrano[3′,4′:6,7]indolizino[1,2-b]quinolin-1-yl)butanamide] showed an IC50 (MDA-MB-231 cells) of 1.2 nM.
`CC[C@@]1(O)C(=O)OCc2c1cc1n(c2=O)Cc2c-1nc1cc(F)c(C)c3c1c2[C@@H](NC(=O)C[C@@H](N)CO)CC3` [P-III-29, (R)-3-amino-N-((1S,9S)-9-ethyl-5-fluoro-9-hydroxy-4-methyl-10,13-dioxo-2,3,9,10,13,15-hexahydro-1H,12H-benzo[de]pyrano[3′,4′:6,7]indolizino[1,2-b]quinolin-1-yl)-4-hydroxybutanamide] was tested, and the IC50 (JIMT-1 cells) was 16.7 nM and the IC50 (MDA-MB-231 cells) was 8.6 nM.

— patent US11952384B2, “Anti-tumor compound and preparation method and use thereof” (DUALITY BIOLOGICS (SUZHOU) CO., LTD., priority 2020, dated 2024)
